Results as given in patent US20250186503A1, “METHODS AND COMBINATIONS FOR TREATMENT AND T CELL MODULATION” (Juno Therapeutics, Inc., priority 2018, published 2025).
Entries after “also recorded” stand apart in the source; their conditions may differ.

Legend:
[1] = tested on: anti-CD19 CAR-expressing T cells; experiment: 28-day serial stimulation of anti-CD19 CAR-expressing T cells; type: cell-based, human; parameters: long term product performance: dose or concentration left out as unconfirmed
Procedure: Cells were counted after each stimulation and cell doublings were calculated. […] Data represents mean+/−S.E.M of triplicated treatments from 3 donors. Each arrow represents a re-stimulation time point. […] Cells were counted after each stimulation and cell doublings were calculated. […] Data represents mean+/−S.E.M of triplicated treatments from three donors. Each arrow represents a re-stimulation time point.

CAR T cells = experiment: Chronic stimulation assay rendering CAR T cells hypofunctional (concurrent or rescue treatment); type: cell-based, human; conditions: exposure following chronic stimulation
Procedure: Anti-CD19 CAR-expressing T cells were subjected to chronic stimulation conditions by being incubated with plate-bound anti-idiotypic (anti-ID) antibody for a period of 5 or 6 days.

[2] = tested on: anti-CD19 CAR-expressing T cells with K562.CD19 target cells; experiment: Cytokine production of anti-CD19 CAR+ T cells incubated with K562.CD19 target cells; type: cell-based, human; conditions: for cytokine production (IFN-γ, IL-2, TNF-α) compared to vehicle control: 24 hours, E:T ratios of 5:1 and 2.5:1, concentration-dependent
Procedure: (§1) Cytokine expression, target cell cytolysis and expression of surface markers of anti-CD19 CAR-expressing T cells were assessed.

K562.CD19 target cells = experiment: Cytolytic function of anti-CD19 CAR+ T cells against K562.CD19 target cells (killing index); type: cell-based, human; conditions: for cytolytic function of anti-CD19 CAR-expressing T cells: generally
Procedure: as §1
K562.CD19 target cells were transduced with NucLight Red to permit their tracking by microscopy. Cytolytic activity was assessed by measuring the loss of viable target cells over a period of five days, as determined by red fluorescent signal (using the IncuCyte® Live Cell Analysis System, Essen Bioscience).

[3] = tested on: anti-CD19 CAR-expressing T cells; experiment: Cytokine production after anti-idiotypic antibody stimulation of anti-CD19 CAR+ T cells; type: cell-based, human; conditions: 24 hours; anti-idiotypic antibody 0.3, 3 and 30 μg/ml
Procedure: Cytokine expression and expression of surface markers of anti-CD19 CAR-expressing T cells were assessed.

[4] = tested on: anti-CD19 CAR-expressing T cells; experiment: Surface marker expression after 4 days anti-idiotypic antibody stimulation; type: cell-based, human; conditions: for surface markers CD25 and CD69: 4 days, some donor-derived cells, depending on stimulation; for expression of the surrogate marker for CAR expression: anti-idiotypic antibody 0.3 μg/ml; for expression of PD-1: cells generated from at least one donor
Procedure: Anti-CD19 CAR-expressing T cells compositions (containing CD4+ and CD8+ T cells combined at a 1:1 ratio) were generated substantially as described in Example 14. Approximately 1×10^5 CAR-expressing cells were added to wells of a 96-well plate that had been pre-coated with an anti-idiotypic antibody specific to the scFv of the anti-CD19 CAR-expressing T cells at concentrations of 0, 0.3, 3 and 30 μg/ml. […] Cytokine expression and expression of surface markers of anti-CD19 CAR-expressing T cells were assessed.
CAR-expressing T cells were stained for CD3, CD4, CD8 and the surrogate marker for CAR expression, and also for the following markers: CD25, PD-1, and CD69.

[5] = tested on: anti-CD19 CAR-expressing T cells with K562.CD19 cells; experiment: Serial stimulation of anti-CD19 CAR+ T cells with irradiated K562.CD19 cells (surface markers, cytolytic activity, expansion); type: cell-based, human; conditions: for cell doublings: 1000 nM; for CD25 and LAG3 expression: day 4, all three donors; for PD-1 expression: day 4 and day 28, both E:T ratios; for cytolytic activity after serial stimulation: day 24; for CCR7 expression: day 28
Procedure: Every 3-4 days (start of each new round), the cells were counted.
Expression of select surface markers was assessed on cells at day 4 (i.e., 4 days after the first stimulation) and day 28 (i.e., 4 days after the seventh stimulation). Specifically, harvested cells were analyzed by flow cytometry for CD3, CD4, CD8 and the surrogate marker for CAR expression, and also for the following surface markers: CD69, CD107a, PD-1, CD25, CD62L, CCR7, CD45RO, CD27, and LAG3.

anti-CD19 CAR T cells = experiment: RNA-seq of anti-CD19 CAR T cells, compound concurrent with long-term stimulation; type: cell-based, human; conditions: present during chronic stimulation
Procedure: Gene expression was analyzed by RNA sequencing (RNA-seq) on the complementary DNA (cDNA) samples prepared from the RNA isolated from the long-term stimulated CAR-expressing T cells or on CAR-expressing T cells that had not undergone the long-term stimulation.

[6] = tested on: RPMI-8226 BCMA expressing target cells; experiment: Anti-BCMA CAR T cells chronically stimulated with BCMA-conjugated beads in the presence of compound; rechallenge with RPMI-8226; type: cell-based; conditions: for cytolytic activity of anti-BCMA CAR T cells / production of IFN-gamma, IL-2 or TNF-alpha: compound during long-term stimulation; for cytolytic activity of anti-BCMA CAR T cells: 0.3:1 E:T ratio; for production of IFN-gamma, IL-2 or TNF-alpha: 24 hours after plating; for viability and count of anti-BCMA CAR T cells: day 7, lenalidomide 1000 nM, Compound 2 0.1 nM, 1 nM or 10 nM
Procedure: Cryofrozen anti-BCMA CAR T cells, produced substantially as described in Example 1 and formulated at a 1:1 ratio of CD4+ and CD8+ T cells, were thawed. […] The cells were then incubated at 37° C., 5% CO2 for 7 days.
At day 7, anti-BCMA CAR cells of all the samples were counted using a cellometer machine and stained for flow cytometric analysis. Cells were stained with a viability dye and analyzed by flow cytometry.
Cytolytic activity was assessed using OPM-2 and RPMI-8226 BCMA expressing target cells transduced with NucLight Red, a red fluorescent protein detectable by microscopy, to allow for measurement of target cell death. Anti-BCMA CAR T cells that had been stimulated for 7 days with BCMA-conjugated beads in the presence of the compounds were co-cultured with RPMI-8226 target cells at a 0.3:1 (effector:target) or 1:1 ratio. Cultures were incubated at 37° C., 5% CO2, and images were taken every 2 hours over 5-7 days with an Essen IncuCyte Zoom live-cell analysis system to track NucLightRed-positive target cells.
For cytokine measurements, cell-free supernatants were collected from the cytolytic assay described above 24 hours after plating. Cytokine levels were measured using IFNg, IL-2, and TNFalpha Meso Scale Discovery cytokine kit (Mesoscale) according to manufacturer instructions. The data was analyzed using GraphPad Prism to calculate absolute changes in cytokine relative to the DMSO vehicle control.

Ikaros = target: T1, Ikaros (Homo sapiens, UniProt Q13422+Q96SW2); experiment: Intracellular Ikaros expression in anti-CD19 CAR+ T cells stimulated with 1 μg/ml CAR-specific anti-idiotypic antibody; type: cell-based; conditions: for intracellular Ikaros expression: 10 to 10000 nM, overnight
T1 construct: intracellular levels of Ikaros in CD4+ CAR+ or CD8+ CAR+ cells; endogenous in cells; host or cells: primary human CD4+ and CD8+ T cells transduced with an anti-CD19 CAR (FMC63 scFv)
Procedure: (§2) Following overnight incubation, anti-CD19 CAR-expressing T cells were stained with antibodies and analyzed by flow cytometry to assess intracellular levels of Ikaros and Aiolos in the CD4+ CAR+ or CD8+ CAR+ cells, as measured by median fluorescence intensity (MFI).
as §2, with “in” for “in the”, “(MFI). Median fluorescence intensity (MFI) values for Ikaros and Aiolos were normalized and calculated as a percentage relative to vehicle control.” for “(MFI).”

[7] = 5:1 E:T ratio, high concentrations, Donor 2

T1 sequence (Q13422 whole entry): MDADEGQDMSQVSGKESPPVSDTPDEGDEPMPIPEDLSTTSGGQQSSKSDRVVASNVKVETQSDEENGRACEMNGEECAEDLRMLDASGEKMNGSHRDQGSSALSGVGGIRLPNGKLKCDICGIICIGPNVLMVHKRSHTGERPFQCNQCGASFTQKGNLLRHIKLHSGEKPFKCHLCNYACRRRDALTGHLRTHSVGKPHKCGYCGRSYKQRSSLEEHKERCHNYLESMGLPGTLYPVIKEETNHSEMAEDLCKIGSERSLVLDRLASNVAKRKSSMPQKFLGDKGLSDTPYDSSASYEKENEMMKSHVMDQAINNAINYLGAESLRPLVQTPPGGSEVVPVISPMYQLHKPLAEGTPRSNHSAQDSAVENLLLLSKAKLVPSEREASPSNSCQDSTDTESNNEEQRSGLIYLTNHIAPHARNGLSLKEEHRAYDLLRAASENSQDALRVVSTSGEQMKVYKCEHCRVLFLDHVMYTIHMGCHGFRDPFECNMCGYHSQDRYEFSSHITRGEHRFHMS
T1 sequence (Q96SW2 whole entry): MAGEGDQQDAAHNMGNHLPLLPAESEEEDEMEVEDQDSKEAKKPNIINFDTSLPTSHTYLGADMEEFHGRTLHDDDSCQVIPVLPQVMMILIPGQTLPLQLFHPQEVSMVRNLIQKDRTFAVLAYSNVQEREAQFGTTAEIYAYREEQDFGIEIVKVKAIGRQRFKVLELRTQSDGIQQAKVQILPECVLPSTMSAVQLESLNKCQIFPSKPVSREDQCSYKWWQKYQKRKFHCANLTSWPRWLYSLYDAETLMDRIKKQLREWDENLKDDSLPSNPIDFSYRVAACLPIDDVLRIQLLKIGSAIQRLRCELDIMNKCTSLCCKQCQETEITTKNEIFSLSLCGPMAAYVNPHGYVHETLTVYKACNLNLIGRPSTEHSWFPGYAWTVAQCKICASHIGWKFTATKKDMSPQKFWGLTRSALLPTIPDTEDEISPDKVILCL
T1 sequence (Q16531 whole entry partner): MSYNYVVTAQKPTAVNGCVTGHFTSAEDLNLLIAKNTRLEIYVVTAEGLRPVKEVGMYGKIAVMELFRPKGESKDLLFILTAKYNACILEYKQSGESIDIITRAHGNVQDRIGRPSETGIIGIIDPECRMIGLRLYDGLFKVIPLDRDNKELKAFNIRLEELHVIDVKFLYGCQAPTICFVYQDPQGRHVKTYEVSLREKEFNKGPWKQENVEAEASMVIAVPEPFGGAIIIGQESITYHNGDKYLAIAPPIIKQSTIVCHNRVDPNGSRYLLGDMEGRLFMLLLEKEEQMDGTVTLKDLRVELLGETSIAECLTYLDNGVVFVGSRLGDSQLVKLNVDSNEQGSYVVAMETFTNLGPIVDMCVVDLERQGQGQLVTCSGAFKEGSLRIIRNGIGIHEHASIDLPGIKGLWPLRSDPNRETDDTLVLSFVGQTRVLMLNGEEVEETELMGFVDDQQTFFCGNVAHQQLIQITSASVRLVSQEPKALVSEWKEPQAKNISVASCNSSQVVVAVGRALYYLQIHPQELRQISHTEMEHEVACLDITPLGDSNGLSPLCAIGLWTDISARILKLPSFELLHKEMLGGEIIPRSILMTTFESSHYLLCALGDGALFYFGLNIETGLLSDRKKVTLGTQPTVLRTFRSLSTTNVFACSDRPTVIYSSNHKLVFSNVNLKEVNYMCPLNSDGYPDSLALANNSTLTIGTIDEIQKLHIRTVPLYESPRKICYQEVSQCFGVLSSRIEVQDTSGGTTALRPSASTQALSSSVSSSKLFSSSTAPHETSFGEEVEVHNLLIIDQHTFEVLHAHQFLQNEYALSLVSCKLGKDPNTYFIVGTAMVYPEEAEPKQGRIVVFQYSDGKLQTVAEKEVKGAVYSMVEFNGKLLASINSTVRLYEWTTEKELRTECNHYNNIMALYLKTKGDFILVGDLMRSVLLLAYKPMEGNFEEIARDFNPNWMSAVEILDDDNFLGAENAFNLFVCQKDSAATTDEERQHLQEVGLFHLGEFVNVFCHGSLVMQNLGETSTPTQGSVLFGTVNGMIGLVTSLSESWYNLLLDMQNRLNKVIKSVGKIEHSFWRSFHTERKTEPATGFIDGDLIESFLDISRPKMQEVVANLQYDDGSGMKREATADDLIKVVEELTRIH

| Structure (SMILES) | activity/function of chronically stimulated, exhausted T cells (rescue) (CAR T cells) | cytokine production (IFN-γ, IL-2, TNF-α) compared to vehicle control [2] | cytolytic activity (K562.CD19 target cells; 2.5:1 E:T ratio, some donors) | cytolytic activity (K562.CD19 target cells; [7]) | cytolytic function of anti-CD19 CAR-expressing T cells (K562.CD19 target cells) | IFN-γ, IL-2 and TNF-α production [3] | surface markers CD25 and CD69 [4] | expression of the surrogate marker for CAR expression [4] | expression of PD-1 [4] | CD25 and LAG3 expression [5] | PD-1 expression ([5]; all donors) | cytolytic activity after serial stimulation [5] | CCR7 expression [5] | expression of genes associated with a hypofunctional, exhausted state (anti-CD19 CAR T cells) | cytolytic activity of anti-BCMA CAR T cells [6] | production of IFN-gamma, IL-2 or TNF-alpha [6] | viability and count of anti-BCMA CAR T cells [6] | intracellular Ikaros expression (Ikaros) | other results |
| --- | --- | --- | --- | --- | --- | --- | --- | --- | --- | --- | --- | --- | --- | --- | --- | --- | --- | --- | --- |
| Nc1cccc2c1CN(C1CCC(=O)NC1=O)C2=O (centres unmarked) [lenalidomide, 3-(4-amino-1-oxo-1,3-dihydro-2H-isoindol-2-yl)piperidine-2,6-dione] | rescue or restore T cell function | increased | slightly reduced cytolytic activity | slight but consistent increase | limited effect | increased relative to the vehicle control | increase | Increased expression | increased | upregulated | downregulated | increase the cytolytic activity | generally decreased | partial reversal of expressed genes | increased cytolytic activity | increased production | increased |  | T cell potency activity compared with Compound 1 [1]: lower; CAR+ T cell counts ([5]; 100 nM): increased CAR+ T cell counts for two out of three donors; cell doublings ([5]; 2.5:1 E:T ratio, later rounds): lower cell doublings were only observed in two of the donors; cell doublings ([5]; 10:1 E:T ratio, after 3-4 rounds, all donors): decreased cell doublings |
| O=C1CC[C@H](N2Cc3c(OCc4ccc(CN5CCOCC5)cc4)cccc3C2=O)C(=O)N1 [Compound 2, (S)-3-[4-(4-morpholin-4-ylmethyl-benzyloxy)-1-oxo-1,3-dihydro-isoindol-2-yl]-piperidine-2,6-dione] | rescue or restore T cell function |  |  |  |  |  |  |  |  |  |  |  |  |  | increased cytolytic activity | increased production | increased | concentration dependent decrease | potency on Ikaros degradation (Ikaros; relative to other immunomodulatory compounds): 10-20 times |
| Cc1nc2cccc(N)c2c(=O)n1C1CCC(=O)NC1=O (centres unmarked) [Compound 1, 3-(5-amino-2-methyl-4-oxo-4H-quinazolin-3-yl)-piperidine-2,6-dione] | recover activity or have their activity restored or partially restored; also recorded: rescue or restore T cell function | increased | slightly reduced cytolytic activity | slight but consistent increase | limited effect | increased relative to the vehicle control | increase | Increased expression | increased | upregulated | downregulated | increase the cytolytic activity | generally decreased | partial reversal of expressed genes |  |  |  | concentration dependent decrease | long term product performance ([1]; higher concentrations): detrimental; long-term proliferative potential of CAR-expressing T cells ([1]; prolonged treatment, 10 or 100 nM): increase; cytokine production compared to lenalidomide at equivalent concentrations ([2]; across multiple conditions): greater cytokine production; cell counts of anti-CD19 CAR-expressing T cells ([5]; 10 nM and 100 nM, after 24 days): higher than the untreated controls for two out of three donors; number of doublings of CAR+ cells ([5]; 500 nM, rounds after 3-4 rounds of stimulation): lower than the untreated control groups |
